Results published in patent publication US4569915A, “P. obtusus strain” (Cetus Corporation, priority 1984, dated 1986).

Experiments:
[1] = test system: P. obtusus P2O; experiment: Relative activities of P. obtusus P2O on pyranose substrates; assay type: biochemical; conditions: about 1% (w/v) substrate; D-glucose = 100
Procedure: The P2O enzyme preparation from Example II was purified further using DEAE chromatography in 30 mM TRIS-HCl, pH 8.5, containing 2 mM EDTA and 10 ug/ml PMSF. The sample was eluted from a 5×16 cm column using a gradient of 0-300 mM NaCl. P2O activity was monitored using the orthodianisidine colorometric assay for the peroxide co-product, essentially as described by Ruelius et al., Biochim et Biophys. Acta 167, 493-500 (1968). P2O activity eluted at about 50 mM NaCl. Fractions containing the peak activity were pooled and concentrated to 0.5 ml by ultrafiltration using Amicon filters obtained from Amicon Corp. (Danvers, MA). Biogel P300 was obtained from Biorad Laboratories (Richmond, CA). The sample was further purified by molecular sieve chromatography using a 1.5×95 cm Biogel P300 column in 100 mM sodium phosphate, pH 7 buffer. The P2O activity eluted at a sharp peak corresponding to an apparent native molecular weight of about 290,000 daltons.
The enzyme appears to contain one covalently bound flavin molecule per subunit (detectable as UV-fluorescence in the 68,000 dalton SDS-PAGE band), and has absorption maxima at 276, 357 and 456 nm. The enzyme has a sedimentation coefficient of about 11.4, as determined by sucrose gradient ultracentrifugation. The relative activities of the enzyme, on D-glucose, L-sorbose, D-xylose, and D-gluconolactone are 100: 80: 48: 12, respectively, at about 1% (w/v) substrate concentration. As noted above with respect to FIG. 2, the enzyme has a broad pH optimum of between about 4.5 and 5.5.

[2] = target: T1, C. versicolor P2O (Trametes versicolor, UniProt P79076); experiment: Relative activities of C. versicolor P2O on pyranose substrates; assay type: biochemical; conditions: 1% (w/v) substrate; D-glucose = 100
T1 construct: A single band having a molecular weight of about 65,000 was observed when the enzyme was analyzed by SDS-PAGE; made in house; host or cells: C. versicolor itself (native producer; high-producer culture selected from NRRL 15152 / CMCC 0748)
Procedure: The enzyme was applied to a 2.6×40 cm DEAE column, washed, and eluted using a 0-300 mM NaCl gradient. The P2O elutes at about 220 mM. Portions of each fraction were assayed for P2O activity, by monitoring peroxide generation conventionally. Protein concentration was also determined by a conventional method. The fractions containing P2O activity were pooled and concentrated by ultrafiltration with an Amicon PM10 filter obtained from Amicon Corp. Peak fractions were dialyzed into 30 mM sodium acetate (pH 5.5), adjusted to 1.5M NaCl and loaded onto a phenylsepharose column. The P2O was eluted with a 0-1.5M NaCl gradient in 50 mM sodium acetate, pH 5.5. The enzyme eluted at about 1.1M NaCl. Fractions containing the peak activity were pooled and concentrated to 0.5 ml by Amicon PM30 ultrafiltration and sized according to native molecular weight using a 1.5×95 cm Biogel P300 column. Elution was at 0.1 ml/minute with 100 mM sodium phosphate, pH 7.0. Using known molecular weight markers in the column, the enzyme's apparent native molecular weight was calculated to be about 130,000 daltons. A single band having a molecular weight of about 65,000 was observed when the enzyme was analyzed by SDS-PAGE. The enzyme thus appears to be a homodimer. The enzyme was judged to be about 95% pure, based on the staining intensity of protein bands in SDS-PAGE.
The relative activities of the enzyme on the substrates D-glucose, L-sorbose, D-xylose and delta-D-gluconolactone are 100: 74: 41: 6, respectively, at 1% (w/v) substrate concentration. The enzyme has a pH optimum of about 5.0.

[3] = test system: L. betulinus P2O; experiment: Relative activities of L. betulinus P2O on pyranose substrates; assay type: biochemical; conditions: 20 mM substrate; D-glucose = 100
Procedure: The resulting clear yellow supernatant was further purified using DEAE chromatography in 30 mM TRIS-HCl, pH 8.5, and eluted from the 5×16 cm column using a 0-300 mM NaCl gradient. The protein eluted at about 75 mM NaCl. Fractions containing the peak of P2O activity were pooled and concentrated to 0.5 ml by Amicon PM30 ultrafiltration, and then fractionated, according to native molecular weight, using a 1.5×95 cm Biogel P300 column. The column was run at a flow rate of 0.1 ml per minute, using 100 mM sodium phosphate, pH 7.0. The protein eluted in a fraction corresponding to an apparent native molecular weight of about 300,000 daltons. […] Based on the molecular weight data, the protein appears to be a homotetramer.
The enzyme contains a covalently attached flavin on each subunit, and has absorption maxima at 275, 360, and 450 nm. The relative activities of the purified enzyme on the pyranose substrates D-glucose, L-sorbose, D-xylose and delta-D-gluconolactone are 100: 43: 43: 26, respectively, at 20 mM substrate concentration. The enzyme has a broad pH optimum between about 5 and 6.

[4] = Ericsson et al. and Lindberg et al.; cited from earlier work
[5] = Nonenzymatic breakdown of glucosone (UV scan); assay type: physicochemical; conditions: 0.5% solution
From the text: Secondly, studies indicate that pure glucosone undergoes relatively rapid, nonenzymatic breakdown above a pH of about 7.0. In one experiment, a 0.5% solution of highly purified glucosone (prepared by enzymatic conversion of glucose by a purified P. obtusus P2O enzyme at pH 4.4) was brought to pH 7.0 in a buffered solution. Immediately thereafter, the solution was scanned spectrophotometrically in the UV range between 200 and 350 nm, at one minute intervals.

[6] = Glucosone breakdown on control of reaction pH by base addition; assay type: physicochemical; conditions: NaOH versus buffer such as 1M sodium bicarbonate or 1M TRIS-HCl
Procedure: Attempts to control reaction pH by the periodic addition of base have not been entirely successful. […] Therefore, in order to reduce glucosone breakdown, the base must be added in a manner which minimizes local regions of high pH in the solution. […] Introduction of the buffer with rapid mixing further reduces glucosone breakdown, presumably by reducing locally-elevated pH levels which occur when the buffer is added. It was noted above that even pH's in the range of 7.0 can lead to relatively rapid nonenzymatic glucosone breakdown. Ideally therefore, where high purity and yield are desired, one would like to avoid adding base to the reaction to offset the buildup of acidic by-products.

For O=C1O[C@H](CO)[C@@H](O)[C@H](O)[C@H]1O [delta-D-gluconolactone], the “relative activity of P. obtusus P2O on substrate” value [1] was 12, the “relative activity of C. versicolor P2O on substrate” value [2] was 6 and the “relative activity of L. betulinus P2O on substrate” value [3] was 26.

With OC[C@H]1OC(O)[C@H](O)[C@@H](O)[C@@H]1O (stereo partly drawn) [D-glucose] the “relative activity of P. obtusus P2O on substrate” value [1] was 100, the “relative activity of C. versicolor P2O on substrate” value [2] was 100 and the “relative activity of L. betulinus P2O on substrate” value [3] was 100.

With OC1OC[C@@H](O)[C@H](O)[C@H]1O (stereo partly drawn) [D-xylose] the “relative activity of P. obtusus P2O on substrate” value [1] was 48, the “relative activity of C. versicolor P2O on substrate” value [2] was 41 and the “relative activity of L. betulinus P2O on substrate” value [3] was 43.

For O=CC(=O)[C@@H](O)[C@H](O)[C@H](O)CO [glucosone, D-arabino-2-hexosulose], the “stability under alkaline conditions” value [4] is listed as “breaks down under alkaline conditions”, the “310 nm peak (nonenzymatic breakdown)” value ([5]; pH 6.0, several minutes) is listed as “no initial peak at 310 nm was observed nor did one form” and the “increase of 310 nm peak (nonenzymatic breakdown)” value ([5]; pH 7.0, five minute period) is listed as “increasing several-fold”. The “glucosone breakdown with periodic NaOH addition” value [6] was “more glucosone breakdown”.

For O=C(CO)[C@@H](O)[C@H](O)[C@@H](O)CO [L-sorbose], the “relative activity of P. obtusus P2O on substrate” value [1] was 80, the “relative activity of C. versicolor P2O on substrate” value [2] was 74 and the “relative activity of L. betulinus P2O on substrate” value [3] was 43.
